ChEMBL document CHEMBL4177616, “Potent anti-melanogenic activity and favorable toxicity profile of selected 4-phenyl hydroxycoumarins in the zebrafish model and the computational molecular modeling studies” (Bioorg Med Chem, 2017)
The source made the active and inactive calls. The calls are words filed in the database; no cut-off is given here.

Columns and labels:
[1] = organism: Danio rerio; experiment: Toxicity in wild type zebrafish embryos assessed as head malformation at 100 ug/ml treated for 96 hrs post fertilization starting from 6 hrs post fertilization by inverted microscopic analysis relative to control; assay type: organism-based; conditions: in vivo
[2] = Toxicity in wild type zebrafish embryos assessed as dead embryo at 1000 ug/ml treated for 96 hrs post fertilization starting from 6 hrs post fertilization by inverted microscopic analysis relative to control; assay type: organism-based, Danio rerio; conditions: in vivo, read-out: Activity
[3] = organism: Danio rerio; experiment: Toxicity in wild type zebrafish embryos assessed as notochord at 2000 ug/ml treated for 96 hrs post fertilization starting from 6 hrs post fertilization by inverted microscopic analysis relative to control; assay type: organism-based; conditions: in vivo
[4] = organism: Danio rerio; experiment: Toxicity in wild type zebrafish embryos assessed as otoliths at 1000 ug/ml treated for 96 hrs post fertilization starting from 6 hrs post fertilization by inverted microscopic analysis relative to control; assay type: organism-based; conditions: in vivo
[5] = organism: Danio rerio; experiment: Toxicity in wild type zebrafish embryos assessed as blood circulation at 1000 ug/ml treated for 96 hrs post fertilization starting from 6 hrs post fertilization by inverted microscopic analysis relative to control; assay type: organism-based; conditions: in vivo
[6] = organism: Danio rerio; experiment: Toxicity in wild type zebrafish embryos assessed as skeletal deformities at 1000 ug/ml treated for 96 hrs post fertilization starting from 6 hrs post fertilization by inverted microscopic analysis relative to control; assay type: organism-based; conditions: in vivo
[7] = test system: Neutrophil; experiment: Cytotoxicity against mpx:GFP transgenic zebrafish 24 hrs post fertilization embryo neutrophils assessed as loss in neutrophil at 2 to 2.5 mg/ml; assay type: cell-based, Danio rerio
[8] = organism: Danio rerio; experiment: Toxicity in wild type zebrafish embryos assessed as eyes at 2000 ug/ml treated for 96 hrs post fertilization starting from 6 hrs post fertilization by inverted microscopic analysis relative to control; assay type: organism-based; conditions: in vivo
[9] = organism: Danio rerio; experiment: Toxicity in wild type zebrafish embryos assessed as growth retardation at 100 ug/ml treated for 96 hrs post fertilization starting from 6 hrs post fertilization by inverted microscopic analysis relative to control; assay type: organism-based; conditions: in vivo
[10] = organism: Danio rerio; experiment: Toxicity in wild type zebrafish embryos assessed as growth retardation at 2000 ug/ml treated for 96 hrs post fertilization starting from 6 hrs post fertilization by inverted microscopic analysis relative to control; assay type: organism-based; conditions: in vivo
[11] = test system: Danio rerio; experiment: Toxicity in wild type zebrafish embryos assessed as pericardial edema at 100 ug/ml treated for 96 hrs post fertilization starting from 6 hrs post fertilization by inverted microscopic analysis relative to control; assay type: organism-based; conditions: in vivo
[12] = organism: Danio rerio; experiment: Toxicity in wild type zebrafish embryos assessed as heart beat at 1000 ug/ml treated for 96 hrs post fertilization starting from 6 hrs post fertilization by inverted microscopic analysis relative to control; assay type: organism-based; conditions: in vivo
[13] = organism: Danio rerio; experiment: Toxicity in wild type zebrafish embryos assessed as blood circulation at 100 ug/ml treated for 96 hrs post fertilization starting from 6 hrs post fertilization by inverted microscopic analysis relative to control; assay type: organism-based; conditions: in vivo
[14] = organism: Danio rerio; experiment: Anti-melanogenic activity in wild type zebrafish 24 hrs post fertilization embryos assessed as decrease in body pigmentation at >= 500 ug/ml after 48 hrs; assay type: functional, organism-based
[15] = organism: Danio rerio; experiment: Toxicity in wild type zebrafish embryos assessed as head malformation at 500 ug/ml treated for 96 hrs post fertilization starting from 6 hrs post fertilization by inverted microscopic analysis relative to control; assay type: organism-based; conditions: in vivo
[16] = test system: Danio rerio; experiment: Toxicity in wild type zebrafish embryos assessed as pericardial edema at 1000 ug/ml treated for 96 hrs post fertilization starting from 6 hrs post fertilization by inverted microscopic analysis relative to control; assay type: organism-based; conditions: in vivo
[17] = organism: Danio rerio; experiment: Toxicity in wild type zebrafish embryos assessed as unhatched embryo at 500 ug/ml treated for 96 hrs post fertilization starting from 6 hrs post fertilization by inverted microscopic analysis relative to control; assay type: organism-based; conditions: in vivo
[18] = Toxicity in wild type zebrafish embryos assessed as dead embryo at 100 ug/ml treated for 96 hrs post fertilization starting from 6 hrs post fertilization by inverted microscopic analysis relative to control; assay type: organism-based, Danio rerio; conditions: in vivo, read-out: Activity
[19] = organism: Danio rerio; experiment: Toxicity in wild type zebrafish embryos assessed as head malformation at 2000 ug/ml treated for 96 hrs post fertilization starting from 6 hrs post fertilization by inverted microscopic analysis relative to control; assay type: organism-based; conditions: in vivo
[20] = organism: Danio rerio; experiment: Toxicity in wild type zebrafish embryos assessed as normal embryo at 2000 ug/ml treated for 96 hrs post fertilization starting from 6 hrs post fertilization by inverted microscopic analysis relative to control; assay type: organism-based; conditions: in vivo
[21] = in vivo; conditions: zebrafish
Description: Toxicity in wild type zebrafish embryos assessed as dead embryo at 6.25 ug/ml treated for 96 hrs post fertilization starting from 6 hrs post fertilization by inverted microscopic analysis relative to control

[22] = target: T1, Tyrosinase (Danio rerio) (UniProt A0A8M1PAD4); experiment: Inhibition of zebrafish embryo tyrosinase assessed as melanin production at 50 ug/ml after 48 hrs relative to control; values are per cent of control
T1 sequence (whole entry): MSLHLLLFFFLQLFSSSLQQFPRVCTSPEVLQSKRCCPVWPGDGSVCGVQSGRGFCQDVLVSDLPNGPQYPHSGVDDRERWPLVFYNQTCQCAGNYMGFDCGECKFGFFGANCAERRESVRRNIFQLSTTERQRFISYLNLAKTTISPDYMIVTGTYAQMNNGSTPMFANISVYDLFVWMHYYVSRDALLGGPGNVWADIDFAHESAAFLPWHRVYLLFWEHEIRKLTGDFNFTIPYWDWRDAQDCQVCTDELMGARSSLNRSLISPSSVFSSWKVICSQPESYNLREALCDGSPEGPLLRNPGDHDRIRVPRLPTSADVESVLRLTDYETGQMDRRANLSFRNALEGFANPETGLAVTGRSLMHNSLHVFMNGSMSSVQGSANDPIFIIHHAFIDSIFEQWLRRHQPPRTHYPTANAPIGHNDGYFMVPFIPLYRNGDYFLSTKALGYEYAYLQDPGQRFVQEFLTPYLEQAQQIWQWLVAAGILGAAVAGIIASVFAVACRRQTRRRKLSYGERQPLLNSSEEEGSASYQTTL

[23] = target: T1, Tyrosinase (Danio rerio); experiment: Inhibition of zebrafish embryo tyrosinase assessed as residual activity at 50 ug/ml after 48 hrs relative to control

SMILES: O=c1cc(CO)occ1O [KOJIC ACID]
- Activity [1]: 0%
- mortality at 1000 ug/ml [2]: 0%
- Activity [3]: 0%
- Activity [4]: 0%
- Activity [5]: 0%
- Activity [6]: 0%
- Activity [7]: Toxic
- Activity [8]: 0%
- Activity [9]: 0%
- Activity [10]: 3.33%
- Activity [11]: 35%
- Activity [12]: 83.33%
- Activity [13]: 0%
- Activity [14]: Active
- Activity [15]: 0%
- Activity [16]: 98.33%
- Activity [17]: 0%
- mortality at 100 ug/ml [18]: 0%
- Activity [19]: 78.33%
- Activity [20]: 0%

SMILES: Oc1ccc(O)cc1 [HYDROQUINONE]
- mortality at 6.25 ug/ml [21]: 0%

SMILES: O=c1cc(-c2ccccc2)c2ccc(O)cc2o1
- melanin content % of control [22]: 24%
- Activity [23]: 48%
